Experimental data taken from PMC7699649 (Communications Biology, 2020).
Non-standard residues stand in square brackets, D forms with d. Residues, ends and D or L forms follow the SMILES beside them.

Key:
human red blood cells = assay: Haemolysis assay; assay type: cell-based; details: human red blood cells in PBS, 1 h 37 °C, OD550, relative to 0.1% Triton-X-100
Protocol: Haemolysis was tested by incubating titrations of AMPs in PBS with freshly collected human red blood cells for 1 h at 37 °C. Control wells were treated with 0.1% Triton-X-100 to ensure complete lysis, or PBS-only to represent no lysis. Samples were spun down to remove non-lysed cells and the OD550 of the supernatant was measured using a Clariostar plate reader. The percentage of haemolysis was calculated as % haemolysis = (AP − AB)/(AC − AB) × 100, where AP is the absorbance value for a known peptide concentration, AC is the absorbance of the 0.1% Triton-X-100 control, AB is the absorbance of the PBS control. Data presented are averages and standard error from three biological replicate experiments.

EMRSA-15 = assay: 1H HR-MAS NMR metabolomics of bacterial pellets; assay type: cell-based, Staphylococcus aureus; details: EMRSA-15 in MHB, sub-inhibitory challenge v unchallenged; fold change, 1H HR-MAS NMR of pellets
Protocol: S. aureus EMRSA-15 and P. aeruginosa RP73 were streaked on Mueller Hinton agar plates and RPMI (supplemented with 5% FBS) agar plates and incubated at 37 °C overnight or until single colonies formed. […] Cultures were incubated overnight at 37 °C without shaking and pelleted by centrifugation at 4 °C. The supernatant was removed and filtered separately for spent media analysis, the pellet was briefly washed three times with phosphate buffered saline (PBS). The pellets were frozen in liquid nitrogen and lyophilised overnight in an Alpha 1–2 LD plus freeze dryer (Martin Christ, Germany) and stored at −20 °C until required. Samples were transferred into HR-MAS inserts for use in 4 mm Bruker MAS rotor and resuspended in 30 μl of D2O containing 3-(Trimethylsilyl)propionic-2,2,3,3-D4 acid sodium salt (TMSP-2,2,3,3-D4). The removed supernatant was filtered through 0.2 μm filters and pH adjusted to within 0.3 pH units within the same sample set. The samples were supplemented with 10% D2O containing TMSP-2,2,3,3-D4 and loaded into 5.0 mm NMR tubes.
NMR spectra were collected at 600 MHz for ^1H on a Bruker Avance II spectrometer (Bruker Biospin, Coventry, UK) with a 4 mm HR-MAS probe at 310 K while spinning at 5 kHz. ^1H NMR spectra were acquired using a Carr-Purcell Meiboom-Gill pre-saturation (cpmgpr1d) pulse sequence with a spectrum width of 16.0 ppm and 9615 data points using 64 transients. Free induction decay was multiplied by an exponential function with 0.293 Hz line broadening. 2D ^1H–^1H correlation spectroscopy (COSY) and ^1H–^13C Heteronuclear Single Quantum Correlation (HSQC) experiments were performed on representative datasets using standard Bruker settings.
The spectra were Fourier transformed automatically using standard Bruker commands and manually phased and baseline corrected in Bruker TopSpin 4.0 (Bruker Biospin, Coventry, UK). Spectral pre-processing, cross-validation and multivariate analysis were carried out using the in-house programme developed by Dr Louic Vermeer and MVAPACK, an opensource Octave library for NMR metabolomic data processing and analysis. Pre-processing modifies NMR spectra and reduces the variances and influences which are not of interest and may interfere with data analysis, for example, residual water peak or noise and the TSP reference peak. Initially a principle component analysis was carried out to identify clustering spectra and potential outliers in the data, due to e.g. poor baseline. Data were then subject to probabilistic quotient normalisation before binning and alignment. Orthogonal Projections to Latent Structures Discriminant Analysis analyses were conducted to establish the quality of binary comparisons of the metabolomic data (Supplementary Table 4). […] The Mann–Whitney U test was used to compare means and associated p values were false discovery rate adjusted using the Benjamini-Hochberg method (α = 0.05). Box plots were generated using changes in normalised intensity for each metabolite and significant differences between challenges and controls were determined using a one-way ANOVA. Volcano plots and box plots were generated using in-house software developed for Jupyter Notepad using Python 3.7.0. Metabolites were assigned using the databanks: Chenomx NMR suite software (Chenomx Inc., Canada), Human Metabolome Database, BMRB, E. coli Metabolome Database and AOCS lipid library; and a comparison of chemical shifts to the literature, which was confirmed using 2D NMR spectra. Annotated spectra can be found in the supplementary materials (Supplementary Fig. 15). Metaboanalyst and KEGG were later used to identify key pathways that may be affected by these metabolites.

Calu-3 = assay type: cell-based; details: 24 h
Protocol: (§1) HeLa and HEK293 cell lines were purchased from ECACC and cultured in Eagle’s Minimum Essential Media containing glutamine, supplemented with 10% FBS and 1X non-essential amino acids. A549 and Calu-3 cell lines were purchased from ATCC. […] Cytotoxicity was measured by incubating starter cultures of cells for 24 h in a 96 well plate, gently removing the supernatant and replacing it with dilutions of peptides and controls, incubating for a further 24 h and then staining of the cells with the second-generation tetrazolium dye, XTT.

A549 = assay type: cell-based; details: 24 h
Protocol: as §1

HeLa = assay type: cell-based; details: 24 h
Protocol: as §1

HEK293 = assay type: cell-based, human; details: 24 h
Protocol: as §1

BAL cells = assay: Murine EMRSA-15 lung infection model: BAL total and differential cell count; assay type: in vivo, C57Bl6J mice; details: 48 h
Protocol: Using the recently developed method[65], an overnight culture of EMRSA-15 was prepared in tryptic soy broth (TSB). EMRSA-15 was cultured in TSB overnight at 37 °C, adjusted to a starting OD600 of 0.025, and grown for additional 4 h for agar beads preparation. EMRSA-15 was embedded into agar beads by mixing the overnight culture with molten tryptic soy agar, which was then spun into warmed mineral oil. The preparation was cooled and centrifuged at 2700 × g, the remaining oil was eliminated, and the beads were washed in sterile PBS. The CFU content of the beads slurry was subsequently quantified on TSA plates and the beads slurry then diluted to 2 × 10^7 CFU/ml in sterile PBS to deliver a final dose of 1 × 10^6 CFU/mouse. Animal work was performed in accordance with the Animals (Scientific Procedures) Act of 1986 (United Kingdom) and 2012 revisions with local ethical approval of King’s College London. On day 0, male C57Bl6J mice (8–10 weeks, Charles River) were anaesthetised under Isoflurane and 50 µl inoculum of EMRSA-15 embedded in agar beads (10^6 CFU/mouse) was instilled directly into the respiratory tract via oropharyngeal dosing (o.a.). Sham control mice were inoculated with sterile PBS agar beads. […] Body weight was measured daily, and animals monitored at regular intervals for signs of pain and distress. After 48 h of pulmonary infection, animals were terminally euthanized using 25% urethane via intra-peritoneal injection. CFUs were quantified in lung homogenates. Lung homogenates were then centrifuged at 14000 rpm for 30 min at 4 °C and the supernatants were stored at −80 °C for future analysis. For BAL fluid collection and analysis (total and differential cell count), a 22-gauge catheter was inserted into the trachea and BAL was recovered by instillation of 0.5 ml of sterile PBS three times and total cells counts were performed by adding Turks stain in a 1:1 ratio. BAL fluid was then centrifuged, and supernatants were stored at −20 °C. Total levels of TNFα, IL-6, KC and MCP-1 were quantified from BAL fluid collected from all animals and measured by ELISA according to the manufacturer protocol (R&D Systems UK). Concentrations of all mediators were then normalised to total protein content of BAL fluid quantified via bicinchoninic acid total protein assays performed to manufacturers protocols (Thermofisher Scientific). […] Statistical analysis was by one-way ANOVA with Dunnett’s multiple comparisons test.

IL-6 = assay: Murine EMRSA-15 lung infection model: BAL cytokine ELISA; assay type: in vivo, C57Bl6J mice; details: 600 mg/kg vancomycin or D-pleurocidin-KR (also lowest dose 0.15 mg/kg) i.v., 48 h
MCP-1 = assay: as above; assay type: in vivo, C57Bl6J mice; details: vancomycin or D-pleurocidin-KR i.v., 48 h
[1] = Murine EMRSA-15 lung infection model: body weight; assay type: in vivo, C57Bl6J mice; details: cumulative 15 or 1.5 mg/kg/48 h D-pleurocidin-KR; 600 mg/kg vancomycin; i.v.
TNFα = assay: Murine EMRSA-15 lung infection model: BAL cytokine ELISA; assay type: in vivo, C57Bl6J mice; details: vancomycin or D-pleurocidin-KR i.v., 48 h
S. aureus USA300 = details: 200 mg/kg vancomycin i.p.; cited from earlier work
KC = assay: Murine EMRSA-15 lung infection model: BAL cytokine ELISA; assay type: in vivo, C57Bl6J mice; details: 600 mg/kg vancomycin or the two higher D-pleurocidin-KR doses (15, 1.5 mg/kg) i.v., 48 h

CC(C)C[C@@H](NC(=O)[C@@H](Cc1ccc(O)cc1)NC(=O)[C@@H](Cc1c[nH]cn1)NC(=O)[C@H](NC(=O)[C@@H](CC(C)C)NC(=O)[C@@H](C)NC(=O)[C@@H](C)NC(=O)[C@@H](CCCCN)NC(=O)CNC(=O)[C@@H](C)NC(=O)[C@@H](Cc1c[nH]cn1)NC(=O)[C@@H](CCCCN)NC(=O)CNC(=O)[C@@H](C)NC(=O)[C@@H](Cc1c[nH]cn1)NC(=O)[C@@H](C)NC(=O)[C@@H](C)NC(=O)[C@@H](CCCCN)NC(=O)[C@@H](CCCCN)NC(=O)[C@@H](Cc1ccccc1)NC(=O)[C@@H](Cc1ccccc1)NC(=O)[C@@H](CO)NC(=O)CNC(=O)[C@@H](Cc1c[nH]c2ccccc12)NC(=O)CN)[C@H](C)O)C(N)=O [D-pleurocidin-VA] (H-G[dW]G[dS][dF][dF][dK][dK][dA][dA][dH][dA]G[dK][dH][dA]G[dK][dA][dA][dL][dT][dH][dY][dL]-NH2; N-terminus assumed)
haemolysis at the highest concentration tested 400 µg/ml (human red blood cells): Neither pleurocidin-VA nor D-pleurocidin-VA induce detectable haemolysis
fc 2-aminobutyrate (EMRSA-15): 0.991
fc Acetate (EMRSA-15): 1.149
fc Acetyl-Phosphocholine (1) (EMRSA-15): 0.9923
fc Acetyl-Phosphocholine (2) (EMRSA-15): 1.003
fc Adenosine (EMRSA-15): 1.125
fc Alanine (EMRSA-15): 0.9478
fc Aspartate (EMRSA-15): 0.8483
fc Betaine (EMRSA-15): 0.9779
fc Choline (EMRSA-15): 1.051
fc Citrulline (EMRSA-15): 0.9363
fc Glutamate (EMRSA-15): 0.896
fc Glycerol (lipid headgroup) (1) (EMRSA-15): 0.9028
fc Glycerol (lipid headgroup) (2) (EMRSA-15): 1.031
fc Glycerol (lipid headgroup) (3) (EMRSA-15): 0.9777
fc Isoleucine (EMRSA-15): 1.148
fc Lactate (EMRSA-15): 1.293
fc Leucine (EMRSA-15): 1.172
fc Lipid -CH=CH- (EMRSA-15): 1.134
fc Lipid-CH₃ (EMRSA-15): 1.116
fc Lysine (EMRSA-15): 1.027
fc N-acetyl-x (1) (EMRSA-15): 0.8941
fc N-acetyl-x (2) (EMRSA-15): 1.036
fc N-acetyl-x (3) (EMRSA-15): 0.9489
fc Proline (EMRSA-15): 1.056
fc Succinate (EMRSA-15): 0.8785
fc Unassigned 1.47ppm (EMRSA-15): 0.8868
fc Unassigned 3.4802ppm (EMRSA-15): 0.9293
fc Unassigned 8.55ppm (EMRSA-15): 0.9285
fc Uracil (EMRSA-15): 1.738
fc Valine (EMRSA-15): 1.029
fc ᴅ-alanine (LTA) (EMRSA-15): 1.157
Toxicity Calu-3 (EC50 / IC50) (Calu-3): (>250) µg/ml
Toxicity A549 (EC50 / IC50) (A549): (>250) µg/ml
Toxicity HeLa (EC50 / IC50) (HeLa): (198.2 ± 10.2) µg/ml
Toxicity HEK293 (EC50 / IC50) (HEK293): (217.3 ± 46.5) µg/ml

CN[C@H](CC(C)C)C(=O)N[C@H]1C(=O)N[C@@H](CC(N)=O)C(=O)N[C@H]2C(=O)N[C@H]3C(=O)N[C@H](C(=O)N[C@H](C(=O)O)c4cc(O)cc(O)c4-c4cc3ccc4O)[C@H](O)c3ccc(c(Cl)c3)Oc3cc2cc(c3O[C@@H]2O[C@H](CO)[C@@H](O)[C@H](O)[C@H]2O[C@H]2C[C@](C)(N)[C@H](O)[C@H](C)O2)Oc2ccc(cc2Cl)[C@H]1O [vancomycin, reference compound]
neutrophil recruitment (BAL) (BAL cells; 600 mg/kg vancomycin or D-pleurocidin-KR (also lowest dose 0.15 mg/kg) i.v.): reduced
macrophage numbers in BAL (BAL cells; vancomycin or D-pleurocidin-KR i.v.): No effects
IL-6 in BAL (IL-6): reduced
levels of MCP-1 in BAL (MCP-1): No effects
weight loss over the 48-h infection period [1]: mitigates this weight loss
levels of TNFα in BAL (TNFα): No effects
reduction in S. aureus USA300 CFU (S. aureus USA300): comparable reduction
KC levels in BAL (KC): fall to that of the uninfected group

CC(C)C[C@@H](NC(=O)[C@@H](Cc1ccc(O)cc1)NC(=O)[C@@H](Cc1c[nH]cn1)NC(=O)[C@H](NC(=O)[C@@H](CC(C)C)NC(=O)[C@@H](C)NC(=O)[C@@H](C)NC(=O)[C@@H](CCCCN)NC(=O)CNC(=O)[C@H](NC(=O)[C@@H](Cc1c[nH]cn1)NC(=O)[C@@H](CCCCN)NC(=O)CNC(=O)[C@H](NC(=O)[C@@H](Cc1c[nH]cn1)NC(=O)[C@@H](C)NC(=O)[C@@H](C)NC(=O)[C@@H](CCCCN)NC(=O)[C@@H](CCCCN)NC(=O)[C@@H](Cc1ccccc1)NC(=O)[C@@H](Cc1ccccc1)NC(=O)[C@@H](CO)NC(=O)CNC(=O)[C@@H](Cc1c[nH]c2ccccc12)NC(=O)CN)C(C)C)C(C)C)[C@H](C)O)C(N)=O [D-pleurocidin] (H-G[dW]G[dS][dF][dF][dK][dK][dA][dA][dH][dV]G[dK][dH][dV]G[dK][dA][dA][dL][dT][dH][dY][dL]-NH2; N-terminus assumed)
concentration at which 10% haemolysis is achieved (human red blood cells; three biological replicates): 240 µg/mL
fc 2-aminobutyrate (EMRSA-15): 1.089
fc Acetate (EMRSA-15): 7.742
fc Acetyl-Phosphocholine (1) (EMRSA-15): 0.8504
fc Acetyl-Phosphocholine (2) (EMRSA-15): 0.9675
fc Adenosine (EMRSA-15): 0.737
fc Alanine (EMRSA-15): 0.9988
fc Aspartate (EMRSA-15): 0.9699
fc Betaine (EMRSA-15): 1.128
fc Choline (EMRSA-15): 0.8079
fc Citrulline (EMRSA-15): 0.7893
fc Glutamate (EMRSA-15): 0.9017
fc Glycerol (lipid headgroup) (1) (EMRSA-15): 1.108
fc Glycerol (lipid headgroup) (2) (EMRSA-15): 0.9648
fc Glycerol (lipid headgroup) (3) (EMRSA-15): 0.9439
fc Isoleucine (EMRSA-15): 0.8635
fc Lactate (EMRSA-15): 0.8326
fc Leucine (EMRSA-15): 0.8297
fc Lipid -CH=CH- (EMRSA-15): 1.03
fc Lipid-CH₃ (EMRSA-15): 0.9623
fc Lysine (EMRSA-15): 0.8706
fc N-acetyl-x (1) (EMRSA-15): 1.103
fc N-acetyl-x (2) (EMRSA-15): 1.06
fc N-acetyl-x (3) (EMRSA-15): 0.8909
fc Proline (EMRSA-15): 0.991
fc Succinate (EMRSA-15): 0.6241
fc Unassigned 1.47ppm (EMRSA-15): 0.9642
fc Unassigned 3.4802ppm (EMRSA-15): 1.011
fc Unassigned 8.55ppm (EMRSA-15): 5.383
fc Uracil (EMRSA-15): 0.4342
fc Valine (EMRSA-15): 0.8108
fc ᴅ-alanine (LTA) (EMRSA-15): 1.199
Toxicity Calu-3 (EC50 / IC50) (Calu-3): (41.9 ± 1.8) µg/ml
Toxicity A549 (EC50 / IC50) (A549): (79.3 ± 7.2) µg/ml
Toxicity HeLa (EC50 / IC50) (HeLa): (47.1 ± 2.1) µg/ml
Toxicity HEK293 (EC50 / IC50) (HEK293): (61.4 ± 3.9) µg/ml
